Source: patent publication US4594329A, “CRF analogs” (The Salk Institute for Biological Studies, priority 1984, dated 1986)
Square brackets hold non-standard residues; d marks the D form. Peptide text beside a SMILES is read from it. Nle = CCCC[C@H](N)C(=O)O; Orn = NCCC[C@H](N)C(=O)O

How the values were obtained:
[1] = lowering of blood pressure, in vivo testing; settings: general procedure of Example III
Method: (§1) The synthetic peptide AHC and oCRF were examined for their effects on the secretion of ACTH and β-endorphin in vitro and was also in vivo. The potency of synthetic oCRF to stimulate the secretion of ACTH and β-endorphin by cultured rat pituitary cells was measured using the procedure as generally set forth in Endocrinology, 91, 562 (1972). […] In vivo testing is carried out using the general procedure set forth in C. Rivier et al., Science, 218, 377 (1982).

[2] = system: cultured rat pituitary cells; experiment: secretion of ACTH and β-endorphin by cultured rat pituitary cells; assay type: cell-based; settings: for stimulates the secretion of ACTH and β-END-LI / secretion of ACTH and β-END-LI, amount relative to oCRF: general procedure of Example III; for secretion of ACTH and β-END-LI, amount relative to oCRF: % of oCRF
Method: as §1

| Compound | lowering of blood pressure [1] | stimulates the secretion of ACTH and β-END-LI [2] | secretion of ACTH and β-END-LI, amount relative to oCRF [2] | secretion of ACTH and β-END-LI compared with oCRF ([2]; comparison with oCRF) |
| --- | --- | --- | --- | --- |
| CC[C@H](C)[C@H](NC(=O)[C@@H](NC(=O)[C@H](CC(=O)O)NC(=O)[C@H](CC(C)C)NC(=O)[C@H](CC(C)C)NC(=O)[C@H](CC(C)C)NC(=O)[C@H](CCCNC(=N)N)NC(=O)[C@H](CC(N)=O)NC(=O)[C@H](CC(N)=O)NC(=O)[C@H](C)NC(=O)[C@H](C)NC(=O)[C@H](CCC(N)=O)NC(=O)[C@H](CCC(=O)O)NC(=O)[C@H](CCCCN)NC(=O)[C@H](CCC(=O)O)NC(=O)[C@H](CCCCN)NC(=O)[C@H](CCC(=O)O)NC(=O)[C@H](CCC(N)=O)NC(=O)[C@H](CCCCN)NC(=O)[C@H](CCCNC(=N)N)NC(=O)[C@H](C)NC(=O)[C@H](CCC(=O)O)NC(=O)[C@@H](NC(=O)[C@H](CCSC)NC(=O)[C@H](CCCCN)NC(=O)[C@H](CCCNC(=N)N)NC(=O)[C@H](CC(C)C)NC(=O)[C@H](CC(C)C)NC(=O)[C@H](CCC(=O)O)NC(=O)[C@H](CC(C)C)NC(=O)[C@H](CO)NC(=O)[C@H](CC(C)C)NC(=O)[C@H](CC(=O)O)NC(=O)[C@@H](NC(=O)[C@H](CO)NC(=O)[C@@H](NC(=O)[C@@H]1CCCN1C(=O)[C@@H]1CCCN1C(=O)CNC(=O)[C@@H]1CCC(=O)N1)[C@@H](C)CC)[C@@H](C)CC)[C@@H](C)CC)[C@@H](C)CC)C(N)=O | very significant lowering of blood pressure | stimulates the secretion of ACTH and β-END-LI |  |  |
| H-SQEPPISLDLTFHLLRE[Nle]LE[Nle]TKADQLRQQAHSNRKLLDIA-NH2 [[Nle^18,21,Arg^28]-oCRF] | very significant lowering of blood pressure | stimulates the secretion of ACTH and β-END-LI |  |  |
| H-SQEPPISLDLTFHLLREVLE[Nle]TKADQLAEQAHSNRKLLDIA-NH2 [[Nle^21,Glu^29]-oCRF] | very significant lowering of blood pressure | stimulates the secretion of ACTH and β-END-LI |  |  |
| H-SQ[dY][dP]PISLDLTFHLLRE[Nle]LE[Nle]AKAEQEAEQAALNRLLLEEA-NH2 [[D-Tyr^3, D-Pro^4, Nle^18, 21]-AHC] | very significant lowering of blood pressure | stimulates the secretion of ACTH and β-END-LI |  |  |
| H-SQEPPISLDLTFHLLREVLEMTRADQLAQQAHSNRRLLDIA-NH2 [[Arg^23,36]-oCRF] | very significant lowering of blood pressure |  | about 370% |  |
| CCCC[C@H](NC(=O)[C@H](CCC(=O)O)NC(=O)[C@H](CC(C)C)NC(=O)[C@H](CCCC)NC(=O)[C@H](CCC(=O)O)NC(=O)[C@H](CCCNC(=N)N)NC(=O)[C@H](CC(C)C)NC(=O)[C@H](CC(C)C)NC(=O)[C@H](Cc1c[nH]cn1)NC(=O)[C@H](Cc1ccccc1)NC(=O)[C@@H](NC(=O)[C@H](CC(C)C)NC(=O)[C@H](CC(=O)O)NC(=O)[C@H](CC(C)C)NC(=O)[C@H](CO)NC(=O)[C@@H](NC(=O)[C@@H]1CCCN1C(=O)[C@H]1CCCN1)[C@@H](C)CC)[C@@H](C)O)C(=O)N[C@@H](C)C(=O)N[C@@H](CCCCN)C(=O)N[C@@H](C)C(=O)N[C@@H](CCC(=O)O)C(=O)N[C@@H](CCC(N)=O)C(=O)N[C@@H](CCC(=O)O)C(=O)N[C@@H](C)C(=O)N[C@@H](CCC(=O)O)C(=O)N[C@@H](CCC(N)=O)C(=O)N[C@@H](C)C(=O)N[C@@H](C)C(=O)N[C@@H](CC(C)C)C(=O)N[C@@H](CC(N)=O)C(=O)N[C@@H](CCCNC(=N)N)C(=O)N[C@@H](CC(C)C)C(=O)N[C@@H](CC(C)C)C(=O)N[C@@H](CC(C)C)C(=O)N[C@@H](CCC(=O)O)C(=O)N[C@@H](CCC(=O)O)C(=O)N[C@@H](C)C(N)=O [[D-Pro^4, Nle^18,21]-AHC(4-41)] (H-[dP]PISLDLTFHLLRE[Nle]LE[Nle]AKAEQEAEQAALNRLLLEEA-NH2) | very significant lowering of blood pressure |  | about 160% |  |
| H-SEEPPISLDLTLELLREMLEME[Orn]AEKEAEQAALNRLLLEEA-NH2 | very significant lowering of blood pressure | stimulates the secretion of ACTH and β-END-LI |  |  |
| CCCC[C@H](NC(=O)[C@H](CCC(=O)O)NC(=O)[C@H](CC(C)C)NC(=O)[C@H](CCCC)NC(=O)[C@H](CCC(=O)O)NC(=O)[C@H](CCCNC(=N)N)NC(=O)[C@H](CC(C)C)NC(=O)[C@H](CC(C)C)NC(=O)[C@H](Cc1c[nH]cn1)NC(=O)[C@H](Cc1ccccc1)NC(=O)[C@@H](NC(=O)[C@H](CC(C)C)NC(=O)[C@H](CC(=O)O)NC(=O)[C@H](CC(C)C)NC(=O)[C@H](CO)NC(=O)[C@@H](NC(=O)[C@@H]1CCCN1)[C@@H](C)CC)[C@@H](C)O)C(=O)N[C@@H](C)C(=O)N[C@@H](CCCNC(=N)N)C(=O)N[C@@H](C)C(=O)N[C@@H](CCC(=O)O)C(=O)N[C@@H](CCC(N)=O)C(=O)N[C@@H](CCC(=O)O)C(=O)N[C@@H](C)C(=O)N[C@@H](CCC(=O)O)C(=O)N[C@@H](CCC(N)=O)C(=O)N[C@@H](C)C(=O)N[C@@H](C)C(=O)N[C@@H](CC(C)C)C(=O)N[C@@H](CC(N)=O)C(=O)N[C@@H](CCCNC(=N)N)C(=O)N[C@@H](CC(C)C)C(=O)N[C@@H](CC(C)C)C(=O)N[C@@H](CC(C)C)C(=O)N[C@@H](CCC(=O)O)C(=O)N[C@@H](CCC(=O)O)C(=O)N[C@@H](C)C(N)=O [[Nle^18,21,Arg^23]-AHC(5-41)] (H-PISLDLTFHLLRE[Nle]LE[Nle]ARAEQEAEQAALNRLLLEEA-NH2) | very significant lowering of blood pressure | stimulates the secretion of ACTH and β-END-LI |  |  |
| CCCC[C@H](NC(=O)[C@H](CCC(=O)O)NC(=O)[C@H](CC(C)C)NC(=O)[C@@H](NC(=O)[C@H](CCC(=O)O)NC(=O)[C@H](CCCNC(=N)N)NC(=O)[C@H](CC(C)C)NC(=O)[C@H](CC(C)C)NC(=O)[C@H](Cc1c[nH]cn1)NC(=O)[C@H](Cc1ccccc1)NC(=O)[C@@H](NC(=O)[C@H](CC(C)C)NC(=O)[C@H](CC(=O)O)NC(=O)[C@H](CC(C)C)NC(=O)[C@H](CO)NC(=O)[C@@H](NC(=O)[C@@H]1CCCN1C(=O)[C@H]1CCCN1)[C@@H](C)CC)[C@@H](C)O)C(C)C)C(=O)N[C@@H](C)C(=O)N[C@@H](CCCNC(=N)N)C(=O)N[C@@H](C)C(=O)N[C@@H](CCC(=O)O)C(=O)N[C@@H](CCC(N)=O)C(=O)N[C@@H](CC(C)C)C(=O)N[C@@H](C)C(=O)N[C@@H](CCC(N)=O)C(=O)N[C@@H](CCC(N)=O)C(=O)N[C@@H](C)C(=O)N[C@@H](Cc1c[nH]cn1)C(=O)N[C@@H](CO)C(=O)N[C@@H](CC(N)=O)C(=O)N[C@@H](CCCNC(=N)N)C(=O)N[C@@H](CCCCN)C(=O)N[C@@H](CC(C)C)C(=O)N[C@@H](CCSC)C(=O)N[C@@H](CCC(=O)O)C(=O)N[C@H](C(=O)N[C@H](C(N)=O)[C@@H](C)CC)[C@@H](C)CC [[D-Pro^4,Nle^21,38]-rCRF(4-41)] (H-[dP]PISLDLTFHLLREVLE[Nle]ARAEQLAQQAHSNRKLMEII-NH2) | very significant lowering of blood pressure |  |  | in an amount greater than oCRF |
| H-SQEPPISLDLTLELLREMLEMAKAEQEAEQAALNRLYLEEA-NH2 [[Leu^12, Glu^13, Tyr^37]-AHC] | very significant lowering of blood pressure | stimulates the secretion of ACTH and β-END-LI |  |  |
| H-SQEPPISLDLTFALLREMLEMAKAEQEAEQAALNRLLLEEA-NH2 [[Ala^13]-AHC] | very significant lowering of blood pressure | stimulates the secretion of ACTH and β-END-LI |  |  |
